Test results as given in patent US7071194B2, “Method for improving respiratory function and inhibiting muscular degeneration” (priority 2000, dated 2006).

Key:
Assay type in all cases: in vivo, rat
T8 SCI rats [1] = test: Respiratory function by head-out plethysmograph in conscious rats after T8 contusion SCI; settings: for Te (expiratory time) / Ti (inspiratory time) / Tv (tidal volume) / Ve (minute ventilation) / f (respiratory rate): 24 hours post SCI, baseline (room air), rats 360-390 g
Protocol: Female Sprague-Dawley rats (250–280 g and 360–390 g; Taconic, Germantown, N.Y.) were anesthetized with 4% chloral hydrate (360 mg/kg, i.p.). An incomplete spinal courd contusion injury was produced at T8 with a weight drop device (10 g×2.5 cm) as previously described (Wrathall et al., 1985). After SCI, manual expression of bladders was performed twice daily until a reflex bladder was established. Animal care also included housing the rats in pairs to reduce isolation-induced stress, maintaining ambient temperature at 22–25° C., and using highly absorbent bedding. No prophylactic antibiotics were given.
(§1) Experiments were conducted in unanesthetized, awake, spontaneously breathing rats at 24 hours prior to SCI, at 24 hours p.i. and weekly afterwards at 1,2,3, and 4 weeks p.i. (1) Acclimatization of the Animals. […] Animals were placed in the body cylinder of the plethysmograph (FIG. 1a) for 60 minutes per day for at least 5 days. […] (2) Non-Invasive Measurements of Respiratory Rate, Tidal Volume and Minute Ventilation. Non-invasive measurements of respiratory function in conscious rats were performed with a restrained head-out plethysmograph specially designed for rodents (BUXCO Electronics, Inc., Sharon, Conn.) (FIG. 1a). The plethymograph apparatus has a neck seal that prevents leakage of air from between the animal's neck and the plethymograph opening. Displacement of the thoracic wall produced by the animal's respiratory movements causes changes in the cylinder pressure, which results in air flowing across a pneumotachograph located on the wall of the cylinder. The pressure drop across the pneumotachograph is measured with a pressure transducer and is proportional to the flow. This signal is amplified and integrated into volume. From measurements of volume and flow, a computer and appropriate software provides respiratory parameters, such as respiratory rate (f), tidal volume (Vt), minute ventilation (Ve), peak inspiratory flow, peak expiratory flow, inspiratory time (Ti), expiratory time (Te), and accumulated volume. An additional opening on the wall of the box allows volume calibration by injecting and removing air from the box with a calibrated syringe.
(§2) The noise level in the laboratory was kept to a minimum in order not to startle the animals. Further, the animals were visually isolated from the investigators by means of a chamber made of an opaque material that surrounded and covered the front-end of the body plethysmograph (FIG. 1b). Baseline recordings lasted for 4 minutes. (3) Measurement of Ventilatory Response to Carbon Dioxide. For measurement of the ventilatory response to CO2, animals were exposed to air containing 7% CO2. The animals breathed from a funnel fixed in the front wall of a chamber made of an opaque material (FIG. 1b). The animals were exposed to the gas mixture containing 7% CO2 (mixed with 60% O2 and 33% N2) for 5 minutes with recording of respiratory activity for another 2 minutes (a total recording duration of 7 minutes).
(§3) The 5HT1A receptor antagonist, p-MPPI (RBI, Natick, Mass.) was also dissolved in 0.9% saline and given i.p. in a dose of 3 mg/kg (pH 7.4 and final volume of 0.5 ml). […] Vehicle solution (VEH) was 0.9% saline and also injected at i.p. (pH 7.4; volume: 0.5 ml/rat).
Baseline respiratory function was measured under room air ventilation and after the animal was stabilized inside a boy cylinder (FIGS. 1a and b) for 30 minutes at each time point prior to SCI and after injury. Immediately following the evaluation of baseline respiration, the animals were let to breathe air containing 7% CO2 for 7 minutes to monitor their ventilatory response to CO2 stimulus (Teng et al., 1998a and 1999).

T8 SCI rats [2] = test: as above; settings: p-MPPI 2 mg/kg i.p., dose titration experiments
normal conscious rats = test: Respiratory function by head-out plethysmograph in normal conscious rats; settings: p-MPPI 3 mg/kg i.p., n=3
Protocol: as §1, §2, §3

[3] = 24 hours p.i., p-MPPI 3 mg/kg i.p. 20 minutes before 8-OH-DPAT
[4] = 3 & 4 min post p-MPPI 3 mg/kg i.p.
[5] = 19 & 20 min post p-MPPI 3 mg/kg i.p.

COc1ccccc1N1CCN(CCN(C(=O)c2ccc(I)cc2)c2ccccn2)CC1 [p-MPPI, 4-(2′-methoxyphenyl)-1-[2′-[N-(2″-pyridinyl)-p-iodobenzamido]ethyl]piperazine]
effect of pre-treatment on 8-OH-DPAT effects on respiration (T8 SCI rats [1]; [3]): significantly suppressed
effect of pre-treatment on 8-OH-DPAT stimulation of ventilatory response to 7% CO2 (T8 SCI rats [1]; [3]): significantly blocked
Te (expiratory time) (T8 SCI rats [1]; [4]): 0.28 ± 0.02↓
Ti (inspiratory time) (T8 SCI rats [1]; [4]): 0.33 ± 0.01
Tv (tidal volume) (T8 SCI rats [1]; [4]): 0.75 ± 0.08↓ ml
Ve (minute ventilation) (T8 SCI rats [1]; [4]): 76.9 ± 4.6↓ ml/min
f (respiratory rate) (T8 SCI rats [1]; [4]): 103.2 ± 5.4↑ breaths/min
Te (expiratory time) (T8 SCI rats [1]; [5]): 0.54 ± 0.10
Ti (inspiratory time) (T8 SCI rats [1]; [5]): 0.28 ± 0.04
Tv (tidal volume) (T8 SCI rats [1]; [5]): 0.77 ± 0.08↓ ml
Ve (minute ventilation) (T8 SCI rats [1]; [5]): 57.8 ± 4.1↓ ml/min
f (respiratory rate) (T8 SCI rats [1]; [5]): 76.2 ± 7.7 breaths/min
block of stimulating effects of 8-OH-DPAT on respiratory function (T8 SCI rats [2]): substantially block
effect of p-MPPI per se on respiratory function (normal conscious rats): No significant impacts
